Read-outs that look alike come from different tables or passages of the source.
Columns and labels:
[1] = Hansen Solubility Parameters (D, P, H) and distance Ra of solvents (b)
Source text: The oil phase of the emulsion includes the hydrophobic polymer of (a) dissolved in one or more solvents capable of solubilizing the hydrophobic polymer. The one or more solvent may include one or more solvents used to generate or solubilize the hydrophobic polymer, e.g., 2,2,4-trimethyl-1,3-pentanediol-monoisobutyrate. The one or more solvents may be a single solvent or a plurality of solvents.
[formula] • wherein • D1 is 16.8 MPa^0.5, • P1 is 4.8 MPa^0.5, and • H1 is 13.0 MPa^0.5.
In a preferred embodiment, the one or more solvents have a dispersion component (D), a polar component (P), a hydrogen bonding component (H), and a distance (Ra) of less than or equal to 9.9 MPa^0.5 per Hansen Solubility Parameters, wherein the distance (Ra) is defined by formula (I):
[formula] • wherein • D1 is 16.4 MPa^0.5, • P1 is 5.0 MPa^0.5, and • H1 is 11.7 MPa^0.5.
The solvent may be an oil. The term “oil” is intended to mean a non-aqueous compound, non-miscible in water, and liquid at 25° C. and atmospheric pressure (760 mmHg; 1.013×10^5 Pa). […] The solvents may include acetone. The solvents may include oleic acid. The solvents may include an oleic acid containing oil (such as a vegetable oil).

[2] = Hansen Solubility Parameters; cited from earlier work

Ra (Allowable Range) [1]	Ra (Preferred Range) [1]	SMILES	Ra (Preferred Range) ([1]; distance per formula (I) with D1 16.4, P1 5.0, H1 11.7, preferred <= 9.9)	Ra (Allowable Range) ([1]; distance per formula (I) with D1 16.8, P1 4.8, H1 13.0, allowable <= 13.4)	D (dispersion component) [2]	H (hydrogen bonding component) [2]	P (polar component) [2]
–	–	CC(C)=O [Acetone]	7.38 MPa^0.5	8.61 MPa^0.5	15.5 MPa^0.5	7 MPa^0.5	10.4 MPa^0.5
7.81 MPa^0.5	8.67 MPa^0.5	CCO [Ethanol]	–	–	15.8 MPa^0.5	19.4 MPa^0.5	8.8 MPa^0.5
7.02 MPa^0.5	5.54 MPa^0.5	CC(C)O [Isopropyl Alcohol]	–	–	15.8 MPa^0.5	6.4 MPa^0.5	6.1 MPa^0.5
10.70 MPa^0.5	9.41 MPa^0.5	CCCCCCCCCCCCCC(=O)OC(C)C [Isopropyl Myristate]	–	–	15.9 MPa^0.5	2.8 MPa^0.5	2.1 MPa^0.5
7.27 MPa^0.5	5.98 MPa^0.5	CCCCCCCC/C=C\CCCCCCCC(=O)O [Oleic Acid]	–	–	16 MPa^0.5	6.2 MPa^0.5	2.8 MPa^0.5
2.55 MPa^0.5	3.88 MPa^0.5	OCCOc1ccccc1 [Phenoxyethanol]	–	–	–	–	–

SMILES	Ra (Allowable Range) [1]	Ra (Preferred Range) [1]	Ra (Preferred Range) ([1]; distance per formula (I) with D1 16.4, P1 5.0, H1 11.7, preferred <= 9.9)	Ra (Allowable Range) ([1]; distance per formula (I) with D1 16.8, P1 4.8, H1 13.0, allowable <= 13.4)	D (dispersion component) [2]	H (hydrogen bonding component) [2]	P (polar component) [2]
CCCCCCCCCCC(CO)CCCCCCCC (centres unmarked) [Octyldodecanol]	6.33 MPa^0.5	5.17 MPa^0.5	–	–	16.1 MPa^0.5	7.4 MPa^0.5	2.2 MPa^0.5

From US20250195393A1, “COSMETIC COMPOSITION COMPRISING SKIN ACTIVE AGENT” (priority 2023, published 2025)
